Data published in paper PMC12067858 (Febs Letters, 2025).

Molecular target: T1, NcAA9C (Neurospora crassa, UniProt Q7SHI8)
T1 construct: gene gh61-3; copper-saturated
T1 sequence (Q7SHI8 17-359): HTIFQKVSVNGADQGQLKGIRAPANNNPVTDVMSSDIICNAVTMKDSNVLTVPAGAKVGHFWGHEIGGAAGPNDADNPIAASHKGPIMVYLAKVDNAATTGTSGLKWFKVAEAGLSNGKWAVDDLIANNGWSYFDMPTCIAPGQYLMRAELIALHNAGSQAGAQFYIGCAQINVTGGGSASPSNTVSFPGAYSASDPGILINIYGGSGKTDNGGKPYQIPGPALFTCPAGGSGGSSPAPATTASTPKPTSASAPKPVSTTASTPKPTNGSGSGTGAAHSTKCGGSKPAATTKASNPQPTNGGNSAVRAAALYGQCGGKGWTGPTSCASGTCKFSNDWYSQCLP
Experiment: HPAEC-PAD of cellotriose product
Format: biochemical
Conditions: 1 uM enzyme, 100 uM ascorbate, 100 uM H2O2, 50 mM MOPS pH 7.0, 30 C

SMILES: OC[C@H]1O[C@@H](O[C@H]2[C@H](O)[C@@H](O)[C@H](O[C@H]3[C@H](O)[C@@H](O)[C@H](O[C@H]4[C@H](O)[C@@H](O)[C@H](O[C@H]5[C@H](O)[C@@H](O)C(O)O[C@@H]5CO)O[C@@H]4CO)O[C@@H]3CO)O[C@@H]2CO)[C@H](O)[C@@H](O)[C@@H]1O (stereo partly shown) [cellopentaose]
- HPAEC-PAD of cellotriose product: conversion of small, soluble and easily diffusible cellopentaose by NcAA9C
